The values below come from patent publication US10501413B2, “Inhibitors of the Notch transcriptional activation complex and methods for use of the same” (UNIVERSITY OF MIAMI, priority 2015, dated 2019).

Assay [1] deals with T1, Notch transcriptional activation complex (CSL, Notch1, MAML1 on DNA) (Homo sapiens, UniProt P46531+Q06330).
T1 construct: the intracellular domain of Notch (“NICD”); made in house; host or cells: SF21 insect cells (baculovirus)
Kind of assay: Notch complex assembly assay (ALPHASCREEN). In kind it is biochemical. The text has this: An in vitro assay was developed to monitor the assembly of the Notch transcriptional complex (“NTC”) on DNA. The NTC, which includes the Notch, Mastermind (“MAML1”), and CSL proteins, binds to a specific DNA sequence in a CSL-dependent manner. For the assay, baculovirus produced CSL, Notch, and MAML1 were mixed together with a biotinylated DNA oligomer containing the CSL target sequence. Assembly of the NTC on DNA was then monitored with the proximity-based ALPHASCREEN (Perkin Elmer) using streptavidin and protein A beads (FIGS. 1A and 1B). A signal results when MAML1 is recruited to CSL bound DNA.
All recombinant proteins were expressed using baculovirus expression vectors in SF21 cells and purified. Unless otherwise stated, all assays contained 125 fmol of double stranded oligonucleotide, CSL, Notch1 and MAML1 proteins. Reactions were carried out in Tris-buffered saline with 0.1% Tween (“TBS-T”) buffer containing 0.2% bovine serum albumin (“BSA”) and 100 ug/mL salmon sperm DNA. Briefly, the Notch complex was assembled on a biotinylated double stranded (“DS”) oligonucleotide harboring one CSL binding site (5′-[…]-3′). Complex assembly was quantitated using ALPHASCREEN technology (Perkin Elmer). Proteins in the complexes were detected using specific antibodies to either MAML1 (Cell signaling, D3K7B), Notch1 (Abcam, 52627) or CSL (anti-His, Abcam 18184). Streptavidin conjugated acceptor beads (Perkin Elmer, 6760002) were used to bind the DS oligonucleotide, and Protein-A conjugated donor beads (Perkin Elmer, 6760137) were used to detect antibody-coated proteins. For screening compounds, Notch transcriptional activation complex (“NTC”) components were added to wells that already contained the inhibitor to be assayed and allowed to incubate for 30 minutes. The ALPHASCREEN plate (Perkin Elmer, 6008350) was then read on an Envision Plate reader (Perkin Elmer) as specified by the manufacturer.
Determination of Equilibrium Dissociation Constants (KD) and Half Maximal Inhibitory Concentrations (IC50)
In general terms: Alpha assays give light when donor and acceptor beads are brought close together.

The subject of assay [2] is NICD in OE33 and 786-0 cells. Put plainly: Western analysis of NICD levels. In kind it is cell-based, human. The following applies: OE33 and 786-0 cell lysates. On the procedure: (§1) The effect of inhibitor treatment on the assembly of the NTC in cells was investigated.
Protein analysis was carried out using conventional SDS-PAGE and transfer techniques. Blots were probed with the indicated antibody (“Ab”), using standard conditions, and detected using enhanced chemiluminescence (“ECL”). The following Ab were used: anti-Notch1 (ab52627, abcam), anti-Notch1^val1744 (4147S, Cell Signaling Technology) and anti-GAPDH (ab9483, Abcam).

Assay [3] has as its system Notch-dependent somite formation. Kind of assay: Zebrafish somite formation. It is filed as in vivo, D. rerio. The following applies: embryos soaked in 40 μM from 8 hPF, scored at 13 hPF. The text has this: The in vivo effects of the inhibitors of the disclosure also were investigated using D. rerio. Notch signaling plays a role in somite formation in developing vertebrate embryos. Changes in levels of Notch signaling (either increased or decreased) during development of the zebrafish embryo result in disruption of the symmetric, bilaterally formed somites, which can be readily observed. Thus, disruption of somitogenesis in zebrafish represents a convenient dose-sensitive readout for Notch pathway stimulation or inhibition. When 100 pg of mNotch1 was injected in mRNA, defects in somitogenesis in 90% of the embryos resulted (compared to 0% disrupted embryos in the control group) (FIG. 5). […] Disruption of somite formation was not observed, however, when embryos were soaked in vehicle control (DMSO). […] On three separate days, multiple clutches of embryos from two or more breeding pairs of the AB wild type line were combined and incubated at 28.5° C. for 8 hours in E3 medium with 0.1% (w/v) methylene blue. The embryos were then placed into fresh E3 medium with 0.1% (w/v) methylene blue containing 50 μM DMSO, 40 μM compound 1-134-83, or nothing. […] At 13 hours post fertilization, samples were collected and scored for the presence of discrete somite boarders on a Zeiss Stemi 2000-CS scope. Data was analyzed using Fisher's exact test in R3.1.0. […]

Assay [4] has as its system MAML1 and Notch1 occupancy on HES1 promoter in OE33 and 786-0 cells. Kind of assay: Chromatin immunoprecipitation (ChIP) on the HES1 locus. In kind it is cell-based, human. The following applies: 24 hours. On the procedure:
as §1
Cells (8×10^6 OE33 cells or 10×10^6 786-0 cells) were plated onto a 15 cm tissue culture dish a day prior to treatment. Cells were then treated for 24 hours with (N—[N-(3,5-difluorophenacetyl)-L-alanyl]-S-phenylglycine t-butyl ester (“DAPT”, 5 μM), Inhibitor No. 1-134-83 (25 μM), or DMSO vehicle. Following treatment, cells were cross-linked for 10 minutes with 1% formaldehyde. The reaction was then stopped by adding […] glycine. Cells were collected in SDS lysis buffer (1% SDS, 10 mM EDTA, 50 mM Tris-HCl pH 8.0) and sonicated to yield chromatin fragments of approximately 300 to 800 bp (8 minutes at high level for OE33 cells; 5 minutes at medium level for 786-0 cells in BIORUPTOR UCD-200 sonicator). Lysates were divided into equal parts and immunoprecipitated with either α-Notch1 (A301-894A, Bethyl Laboratories) or α-MAML1 (12166s, Cell Signaling Technology) antibody. Protein:DNA immunoprecipitates were then reverse cross-linked at 65° C. in 200 mM NaCl for 4 hours, followed by incubation with RNase A and proteinase K. DNA was then purified using a PCR purification kit (28104,
Qiagen). Immunoprecipitated DNA was then detected by SYBR green qPCR using HES1 specific oligonucleotide primers (forward: 5′CGTGTCTCCTCCTCCCATT3′; reverse: 5′GGGGGATTCCGCTGTTAT3′).

What is called pIC50 is −log10 of the IC50, conventionally taken in molar units. A lower pIC50 goes with a high IC50.

pIC50: −log10 of the molar value.

T1 sequence (P46531 1754-2555 limits assumed): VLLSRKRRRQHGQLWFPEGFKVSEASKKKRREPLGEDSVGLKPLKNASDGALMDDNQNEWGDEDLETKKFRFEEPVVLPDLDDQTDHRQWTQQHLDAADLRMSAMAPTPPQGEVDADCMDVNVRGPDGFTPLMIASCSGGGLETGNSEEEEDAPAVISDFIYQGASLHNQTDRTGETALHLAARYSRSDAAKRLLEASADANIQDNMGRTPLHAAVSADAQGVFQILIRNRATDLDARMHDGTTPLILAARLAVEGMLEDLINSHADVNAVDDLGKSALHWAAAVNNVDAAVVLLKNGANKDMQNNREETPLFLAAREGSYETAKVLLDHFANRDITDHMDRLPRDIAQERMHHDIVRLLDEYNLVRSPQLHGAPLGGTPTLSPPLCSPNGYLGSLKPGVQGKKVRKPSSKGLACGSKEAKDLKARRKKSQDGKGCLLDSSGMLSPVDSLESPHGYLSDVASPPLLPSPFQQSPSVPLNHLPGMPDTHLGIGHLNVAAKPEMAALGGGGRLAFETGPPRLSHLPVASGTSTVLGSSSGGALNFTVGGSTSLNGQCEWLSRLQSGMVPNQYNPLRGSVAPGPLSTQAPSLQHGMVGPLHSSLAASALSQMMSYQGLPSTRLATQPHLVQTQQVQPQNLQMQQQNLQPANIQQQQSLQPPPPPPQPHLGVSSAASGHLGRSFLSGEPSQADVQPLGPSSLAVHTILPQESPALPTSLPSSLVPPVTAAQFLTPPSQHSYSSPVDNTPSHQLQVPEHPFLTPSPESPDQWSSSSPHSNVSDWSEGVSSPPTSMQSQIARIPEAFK
T1 sequence (Q06330 whole entry, the tested form may be a part): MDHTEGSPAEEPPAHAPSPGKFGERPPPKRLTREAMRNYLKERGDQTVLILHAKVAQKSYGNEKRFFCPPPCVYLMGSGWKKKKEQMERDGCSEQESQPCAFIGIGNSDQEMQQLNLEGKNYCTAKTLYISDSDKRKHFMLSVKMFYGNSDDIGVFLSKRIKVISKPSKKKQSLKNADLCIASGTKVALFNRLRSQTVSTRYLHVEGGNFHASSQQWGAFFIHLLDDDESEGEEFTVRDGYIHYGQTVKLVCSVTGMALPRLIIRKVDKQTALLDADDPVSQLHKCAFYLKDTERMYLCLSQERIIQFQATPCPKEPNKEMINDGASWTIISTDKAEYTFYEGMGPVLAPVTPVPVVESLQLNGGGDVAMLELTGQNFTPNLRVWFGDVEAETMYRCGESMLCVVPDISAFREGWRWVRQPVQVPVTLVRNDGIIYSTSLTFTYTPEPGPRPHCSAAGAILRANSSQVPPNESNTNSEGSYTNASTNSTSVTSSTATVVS

`CCOC(=O)COc1ccc(/C=C2\SC(=S)NC2=O)cc1OC` [1-134-83] showed a pIC50 in assay [1] of 4.59. Moreover, the “levels of NICD in cells” value in assay [2] is given as “does not change”. In addition, in assay [3], the “somite formation in embryos” value is recorded as “disrupted somites”. In assay [4], the “occupancy of MAML1 on the HES1 promoter” value is recorded as “decreased the occupancy” and the “occupancy of NOTCH1 on the HES1 promoter” value is given as “did not affect”.
